Results from BindingDB's records for doi:10.1007/s00044-010-9334-1 (n/a, 2011).

Test: Inhibition of microtubule polymerisation in Rattus norvegicus (rat) A10 cells

COc1ccc(C2C=C(c3cc(OC)c(OC)c(OC)c3)NC(=S)N2)cc1O (configuration not stated)
EC50: 4.4 µM

COc1cc(OC)c(C2C=C(c3cc(OC)ccc3OC)NC(=S)N2)c(OC)c1 (configuration not stated)
EC50: 2.9 µM
